According to publication PMC12066179, “Naphthyl-Substituted Ruthenium(II)–Arene Complexes: Exploring the Impact of Binding Modes on Cytotoxicity in Cancer and Normal Cell Lines” (Bioinorganic Chemistry and Applications, 2025):
pIC50: −log10 of the molar value.

Experiments:
[1] = system: MCF-7 (breast cancer) cell line; experiment: MTT cell viability assay, MCF-7; type: cell-based
Experimental: (§1) The MTT assay, which is based on the reduction of 3-(4,5-dimethylthiazol-2-yl)-2,5-diphenyltetrazolium bromide to a purple formazan product, was performed to estimate cell viability and growth. To determine the appropriate dose and time, we performed the MTT assay in HepG2, MCF-7, Caco-2, and Vero cell lines. Cell suspensions of […] cell lines were first prepared at densities of 1 × 10^4/mL cells per well of 96-well culture dishes and plated in triplicate. Cells were then incubated with the complexes (2.5, 5, 10, 25, and 50 μM) for 24 and 48 h. After the treatment using the complexes, a 10 μL MTT (Glentham Life Sciences, GC4568) solution was added to each well, followed by incubation for 4 h at 37°C in 5% CO2. The medium was then discarded, and 50 μL DMSO was added to each well to dissolve the formazan crystals. The absorbance was immediately measured at 540 nm using a UV-visible spectrophotometer multiplate reader.

FS-DNA = FS-DNA binding by UV-Vis titration; conditions: complex 0–15 μM, 20 mM Tris-HCl/NaCl buffer pH 7.2
Experimental: To investigate these interactions, UV-Vis analyses were performed on complexes Ru1-3 (0–15 μM) in 20 mM Tris-HCl/NaCl buffer (pH 7.2) containing 0.1 mM FS-DNA. The corresponding absorption spectra are provided in the supporting information. Aromatic naphthyl groups are known for their ability to intercalate between DNA base pairs. […] While Ru1 is a cationic complex with a high capacity for hydrogen bonding, potentially facilitating ionic interactions with DNA, its overall interaction was weaker compared to the other complexes.
UV-visible spectroscopy was employed to investigate the interaction between […] and Ru1-3. Different concentrations of Ru1-3 (0–15 μM) were titrated against a fixed concentration of FS-DNA ([…]) to monitor changes in absorbance at 260 nm. The analysis of these titration data allowed for the determination of the binding constant (Kb) using the following equation:(1) 1/A−A0=1/Amax−A0+1/C×1/KbAmax−A0, where A is the absorbance of FS-DNA at a specific concentration with increasing complex concentration, A0 is the absorbance of FS-DNA without complex, Amax is the absorbance of the FS-DNA complex at the final state, and C is the complex concentration.

[2] = system: Caco-2 (colorectal cancer) cell line; experiment: MTT cell viability assay, Caco-2; type: cell-based
Experimental: as §1

[3] = system: Vero (normal kidney) cell line; experiment: MTT cell viability assay, Vero; type: cell-based; conditions: for pIC50: MTT
Experimental: as §1

[4] = system: HepG2 (liver cancer) cell line; experiment: MTT cell viability assay, HepG2; type: cell-based
Experimental: as §1

Cc1ccc(C(C)C)cc1.Cc1ccc(S(=O)(=O)[N](CCNc2cccc3ccccc23)[Ru][Cl])cc1 [Ru2]
pIC50 ([1]; 24 h exposure): 5.55
pIC50 ([1]; 48 h exposure): 5.06
Binding constant (Kb) with FS-DNA (FS-DNA): 22700 M⁻¹
pIC50 ([2]; 24 h exposure): 5.86
pIC50 ([2]; 48 h exposure): 5.47
Cytotoxic activity in Vero healthy cell line ([3]; 50–2.5 μM, 24 h and 48 h): did not manifest any cytotoxic activity at concentrations other than 50 μM
pIC50 ([3]; 24 h exposure): 5.11
pIC50 ([3]; 48 h exposure): 4.42
pIC50 ([4]; 24 h exposure): 5.33
pIC50 ([4]; 48 h exposure): 5.06
